# Laboratory results reported in patent US20210400967A1, “COMPOSITIONS COMPRISING PYRIDINE CARBOXYLATE HERBICIDES WITH GLYPHOSATE OR GLUFOSINATE” (Corteva Agriscience LLC, priority 2018, published 2021).
# Tests used:
# Format in all cases: in vivo
# [1] = system: Viola tricolor (wild pansy); test: Greenhouse postemergence herbicidal effect, wild pansy (VIOTR); conditions: Example 4, 20-22 d
# Description: (§1) Greenhouse Trial Methodology—Evaluation of Postemergence Herbicidal Effect
# (§2) Seeds of the desired test plant species were planted in a 90:10% v/v (volume/volume) mixture of PRO-MIX® BX (Premier Tech Horticulture, Quakertown, Pa., USA) and PROFILE® GREENS GRADE™ (Profile Products LLC, Buffalo Grove, Ill., USA) planting mixture, which typically has a pH of 5.2 to 6.2 and an organic matter content of at least 50 percent, in plastic pots with a surface area of 103.2 square centimeters (cm^2). In some aspects, to ensure good germination and healthy plants, a fungicide treatment and/or other chemical or physical treatment was applied. The plants were grown for 7-36 days (d) in a greenhouse with an approximate 14-hour (h) photo-period which was maintained at about 23° C. during the day and 22° C. during the night. Nutrients and water were added on a regular basis and supplemental lighting was provided with overhead metal halide 1000-Watt lamps as necessary. The plants were employed for testing when they reached the second or third true leaf stage.
# (§3) Emulsifiable concentrates of each of each pyridine carboxylate herbicide (Compound A or Compound B) were prepared at 100 grams acid equivalent per liter (g ae/L). The emulsifiable concentrates also included a safener, cloquintocet-mexyl, at 120 grams active ingredient per liter (g ai/L). An aliquot of each emulsifiable concentrate was placed in a 25 mL glass vial and diluted with an aqueous mixture of 1.25% (v/v) ACTIROB® B esterified rapeseed oil (Bayer Crop Science, Research Triangle Park, N.C., USA) or MSO® Concentrate with LECI-TECH® methylated soybean oil (Loveland Products, Loveland, Colo., USA) to obtain concentrated stock solutions at the highest application rate for each herbicide, based upon a 12 milliliter (mL) application volume at a rate of 187 liters per hectare (L/ha). The concentrated stock solutions were further diluted with an aqueous mixture of 1.25% v/v ACTIROB® B or MSO® Concentrate with LECI-TECH® to obtain stock solutions at reduced application rates for each herbicide. Spray solutions of the herbicide combinations (Compound A or Compound B plus glyphosate or glufosinate) were prepared by adding weighed amounts or aliquots of the glyphosate or glufosinate to the stock solutions of Compound A or Compound B to form 12-mL spray solutions in two-way combinations.
# (§4) The spray solutions were applied to the plant material with an overhead Mandel track sprayer equipped with 8002E nozzles calibrated to deliver 187 L/ha over an application area of 0.503 square meters (m^2) at a spray height of 18 inches (43 centimeters (cm)) above the average plant canopy. Control plants were sprayed in the same manner with the solvent blank. All pyridine carboxylate herbicide (component a) application rates are given as “g ae/ha” and all glyphosate or glufosinate (component b) application rates are given as “g ai/ha.”
# (§5) The treated plants and control plants were placed in a greenhouse as described above and watered by sub-irrigation to prevent wash-off of the test compounds. After 20-22 d, the condition of the test plants as compared with that of the control plants was determined visually and scored on a scale of 0 to 100 percent where 0 corresponds to no injury and 100 corresponds to complete kill.
# [2] = system: Chenopodium album L. (common lambsquarters); test: Greenhouse postemergence herbicidal effect, common lambsquarters (CHEAL); conditions: 20-22 d
# Description: as §1, §2, §3, §4, §5
# [3] = system: Setaria faberi (giant foxtail); test: Greenhouse postemergence herbicidal effect, giant foxtail (SETFA); conditions: 20-22 d
# Description: as §1, §2, §3, §4, §5
# [4] = system: Cirsium arvense (Canadian thistle); test: Greenhouse postemergence herbicidal effect, Canadian thistle (CIRAR); conditions: 20-22 d
# Description: as §1, §2, §3, §4, §5
# [5] = system: Brassica napus (spring rape); test: Greenhouse postemergence herbicidal effect, spring rape (BRSNN); conditions: 20-22 d
# Description: as §1, §2, §3, §4, §5
# [6] = system: Polygonum convolvulus (wild buckwheat); test: Greenhouse postemergence herbicidal effect, wild buckwheat (POLCO); conditions: 20-22 d
# Description: as §1, §2, §3, §4, §5
# [7] = system: Abutilon theophrasti (velvetleaf); test: Greenhouse postemergence herbicidal effect, velvetleaf (ABUTH); conditions: Example 4, 20-22 d
# Description: as §1, §2
# Emulsifiable concentrates of each of each pyridine carboxylate herbicide (Compound A or Compound B) were prepared at 100 grams acid equivalent per liter (g ae/L). The emulsifiable concentrates also included a safener, cloquintocet-mexyl, at 120 grams active ingredient per liter (g ai/L). […]
# as §5
# [8] = system: Kochia scoparia (kochia); test: Greenhouse postemergence herbicidal effect, kochia (KCHSC); conditions: 20-22 d
# Description: as §1, §2, §3, §4, §5
# [9] = system: Brassica napus (winter rape); test: Greenhouse postemergence herbicidal effect, winter rape (BRSNW); conditions: 20-22 d
# Description: as §1, §2, §3, §4, §5
# [10] = system: Sinapis arvensis (wild mustard); test: Greenhouse postemergence herbicidal effect, wild mustard (SINAR); conditions: 20-22 d
# Description: as §1, §2, §3, §4, §5
# [11] = system: Salsola kali (Russian thistle); test: Greenhouse postemergence herbicidal effect, Russian thistle (SASKR); conditions: 20-22 d
# Description: as §1, §2, §3, §4, §5
# [12] = system: Triticum aestivum (spring wheat); test: Greenhouse postemergence phytotoxicity on crop, spring wheat (TRZAS); conditions: 20-22 d
# Description: as §1, §2, §3, §4, §5
# [13] = system: Matricaria chamomilla (wild chamomile); test: Greenhouse postemergence herbicidal effect, wild chamomile (MATCH); conditions: 20-22 d
# Description: as §1, §2, §3, §4, §5
# [14] = system: Amaranthus retroflexus (pigweed); test: Greenhouse postemergence herbicidal effect, pigweed (AMARE); conditions: 20-22 d
# Description: as §1, §2, §3, §4, §5
# [15] = system: Hordeum vulgare (spring barley); test: Greenhouse postemergence phytotoxicity on crop, spring barley (HORVS); conditions: 20-22 d
# Description: as §1, §2, §3, §4, §5
# [16] = Example 3, Compound B 7.5 g ae/ha alone
# [17] = Example 3, Compound B 10 g ae/ha alone
# [18] = Example 4, Compound B 7.5 g ae/ha alone
# [19] = Example 4, Compound B 10 g ae/ha alone
# [20] = Example 1, Glyphosate 210 g ai/ha alone
# [21] = Example 2, Glyphosate 420 g ai/ha alone
# [22] = Example 3, Glyphosate 210 g ai/ha alone
smiles,measurement,setting,value
"C#CCOC(=O)c1nc(-c2ccc3cc[nH]c3c2F)c(F)c(N)c1Cl [Compound B, propargyl 4-amino-3-chloro-5-fluoro-6-(7-fluoro-1H-indol-6-yl)pyridine-2-carboxylate]","% visual injury, Obs",[1]; Compound B 7.5 g ae/ha alone,10%
same,"% visual injury, Obs",[1]; Compound B 10 g ae/ha alone,40%
same,"% visual injury, Obs",[2]; [16],85%
same,"% visual injury, Obs",[2]; [17],90%
same,"% visual injury, Obs",[2]; [18],85%
same,"% visual injury, Obs",[2]; [19],90%
same,"% visual injury, Obs",[3]; [16],70%
same,"% visual injury, Obs",[3]; [17],55%
same,"% visual injury, Obs",[3]; [18],70%
same,"% visual injury, Obs",[3]; [19],55%
same,"% visual injury, Obs",[4]; [16],45%
same,"% visual injury, Obs",[4]; [17],45%
same,"% visual injury, Obs",[4]; [18],45%
same,"% visual injury, Obs",[4]; [19],45%
same,"% visual injury, Obs",[5]; [16],68%
same,"% visual injury, Obs",[5]; [17],85%
same,"% visual injury, Obs",[5]; [18],68%
same,"% visual injury, Obs",[5]; [19],85%
same,"% visual injury, Obs",[6]; [16],73%
same,"% visual injury, Obs",[6]; [17],80%
same,"% visual injury, Obs",[6]; [18],73%
same,"% visual injury, Obs",[6]; [19],80%
same,"% visual injury, Obs",[7]; Compound B 7.5 g ae/ha alone,68%
same,"% visual injury, Obs",[7]; Compound B 10 g ae/ha alone,68%
same,"% visual injury, Obs",[8]; [16],68%
same,"% visual injury, Obs",[8]; [17],80%
same,"% visual injury, Obs",[8]; [18],68%
same,"% visual injury, Obs",[8]; [19],80%
"O=C(O)CNCP(=O)(O)O [Glyphosate, N-(phosphonomethyl)glycine]",% visual injury,[2]; [20],53%
same,"% visual injury, Obs",[2]; [21],75%
same,"% visual injury, Obs",[2]; [22],8%
same,% visual injury,[9]; [20],68%
same,"% visual injury, Obs",[9]; [21],35%
same,"% visual injury, Obs",[3]; [22],30%
same,% visual injury,[10]; [20],50%
same,"% visual injury, Obs",[10]; [21],30%
same,% visual injury,[4]; [20],38%
same,"% visual injury, Obs",[4]; [21],83%
same,"% visual injury, Obs",[4]; [22],40%
same,% visual injury,[11]; [20],10%
same,"% visual injury, Obs",[11]; [21],53%
same,"% visual injury, Obs",[5]; [22],0%
same,% visual injury,[6]; [20],65%
same,"% visual injury, Obs",[6]; [21],38%
same,"% visual injury, Obs",[6]; [22],20%
same,% visual injury,[12]; [20],90%
same,"% visual injury, Obs",[12]; [21],90%
same,% visual injury,[8]; [20],0%
same,"% visual injury, Obs",[8]; [21],38%
same,"% visual injury, Obs",[8]; [22],3%
same,% visual injury,[13]; [20],60%
same,"% visual injury, Obs",[13]; [21],75%
same,% visual injury,[14]; [20],100%
same,"% visual injury, Obs",[14]; [21],100%
same,% visual injury,[15]; [20],83%
same,"% visual injury, Obs",[15]; [21],80%
